Results published in patent publication US9714234B2, “Carbazole carboxamide compounds” (Bristol-Myers Squibb Company, priority 2013, dated 2017).

How the values were obtained:
[1] = target: human recombinant Btk (Homo sapiens (Human), UniProt Q06187); assay: Human Recombinant Btk Enzyme Assay; format: biochemical; conditions: human recombinant Btk 1 nM, ATP 20 μM
[2] = target: Jak2 tyrosine kinase (Homo sapiens (Human), UniProt O60674); assay: Jak2 Tyrosine Kinase Assay; format: biochemical; conditions: for IC50: Jak2 1 nM, ATP 30 μM; for Ratio of Jak2/Btk IC50 values: selectivity for Btk over Jak2, larger value = more selective for Btk
[3] = tested on: CD69 expression on B cells in human whole blood; assay: Whole Blood Assays of BCR-Stimulated CD69 Expression on B Cells; format: cell-based; conditions: anti-human IgM + IL-4 stimulation, 18 h at 37° C.

human recombinant Btk, sequence (Q06187 whole entry): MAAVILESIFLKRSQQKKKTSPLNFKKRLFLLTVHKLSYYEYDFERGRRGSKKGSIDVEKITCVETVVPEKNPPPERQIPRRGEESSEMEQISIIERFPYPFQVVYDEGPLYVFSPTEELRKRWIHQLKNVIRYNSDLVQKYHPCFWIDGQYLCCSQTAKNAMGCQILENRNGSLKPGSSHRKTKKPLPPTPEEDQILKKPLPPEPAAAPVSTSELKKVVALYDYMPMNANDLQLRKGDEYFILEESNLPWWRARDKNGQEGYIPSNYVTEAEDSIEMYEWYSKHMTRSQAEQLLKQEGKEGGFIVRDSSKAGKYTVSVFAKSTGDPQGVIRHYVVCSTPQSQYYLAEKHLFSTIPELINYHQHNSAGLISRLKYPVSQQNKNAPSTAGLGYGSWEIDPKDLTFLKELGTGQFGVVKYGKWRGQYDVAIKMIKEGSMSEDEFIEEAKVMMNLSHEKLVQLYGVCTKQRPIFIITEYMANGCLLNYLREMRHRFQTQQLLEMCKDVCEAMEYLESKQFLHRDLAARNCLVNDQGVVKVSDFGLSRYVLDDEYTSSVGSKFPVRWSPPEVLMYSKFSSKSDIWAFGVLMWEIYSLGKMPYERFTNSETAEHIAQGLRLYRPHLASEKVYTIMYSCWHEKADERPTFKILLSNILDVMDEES
Jak2 tyrosine kinase, sequence (O60674 whole entry): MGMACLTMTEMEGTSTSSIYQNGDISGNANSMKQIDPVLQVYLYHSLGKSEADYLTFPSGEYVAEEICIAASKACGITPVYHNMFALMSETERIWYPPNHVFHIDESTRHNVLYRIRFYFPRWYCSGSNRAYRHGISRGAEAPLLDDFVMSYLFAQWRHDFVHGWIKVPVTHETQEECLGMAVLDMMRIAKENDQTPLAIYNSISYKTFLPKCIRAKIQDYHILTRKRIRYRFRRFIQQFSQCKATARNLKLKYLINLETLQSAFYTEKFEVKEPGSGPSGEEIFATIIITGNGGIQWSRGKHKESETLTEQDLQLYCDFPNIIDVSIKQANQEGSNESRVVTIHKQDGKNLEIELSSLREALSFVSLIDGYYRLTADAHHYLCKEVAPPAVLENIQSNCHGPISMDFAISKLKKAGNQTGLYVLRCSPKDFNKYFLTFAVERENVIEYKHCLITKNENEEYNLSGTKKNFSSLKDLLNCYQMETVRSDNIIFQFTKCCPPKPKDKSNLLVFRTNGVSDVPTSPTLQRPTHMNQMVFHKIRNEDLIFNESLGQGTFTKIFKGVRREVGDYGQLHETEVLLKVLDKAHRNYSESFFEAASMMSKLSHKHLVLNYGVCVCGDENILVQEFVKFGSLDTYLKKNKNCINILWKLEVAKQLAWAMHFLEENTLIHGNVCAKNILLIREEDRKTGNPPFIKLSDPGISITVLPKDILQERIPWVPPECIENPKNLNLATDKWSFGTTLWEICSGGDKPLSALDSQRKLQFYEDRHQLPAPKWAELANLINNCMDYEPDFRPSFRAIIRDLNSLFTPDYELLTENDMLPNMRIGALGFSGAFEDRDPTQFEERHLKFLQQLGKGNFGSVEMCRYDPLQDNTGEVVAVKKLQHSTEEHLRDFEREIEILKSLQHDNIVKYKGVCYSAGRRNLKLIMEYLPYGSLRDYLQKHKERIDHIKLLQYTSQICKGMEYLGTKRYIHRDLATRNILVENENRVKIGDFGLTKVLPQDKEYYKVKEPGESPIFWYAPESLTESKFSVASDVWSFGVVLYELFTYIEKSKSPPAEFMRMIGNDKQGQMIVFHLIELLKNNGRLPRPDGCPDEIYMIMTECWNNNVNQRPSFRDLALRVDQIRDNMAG

Molecule | IC50 [1] [nM] | IC50 [2] [nM] | Ratio of Jak2/Btk IC50 values [2] | IC50 [3] [nM] | IC50 ([3]; B-cell) [nM] | IC50 ([3]; Homo sapiens, B-cell, 18 h) [nM]
4-(3-(S)-(8-Fluoro-1-methyl-2,4-dioxo-1,2-dihydroquinazolin-3(4H)-yl)-2-methylphenyl)-7-(2-hydroxypropan-2-yl)-5-methyl-9H-carbazole-1-carboxamide [Example 24] | 0.59 | > 2000 | >3400 | 160 | – | –
Cc1c(-c2ccc(C(N)=O)c3[nH]c4cc(C(C)(C)O)ccc4c23)cccc1-n1c(=O)c2cccc(F)c2n(C)c1=O (atropisomer, axis not shown) [Example 3, 4-(3-(S)-(8-Fluoro-1-methyl-2,4-dioxo-1,2-dihydroquinazolin-3(4H)-yl)-2-methylphenyl)-7-(2-hydroxypropan-2-yl)-9H-carbazole-1-carboxamide] | – | 1200 | – | 190 | – | –
Cc1c(-c2ccc(C(N)=O)c3[nH]c4cc(C(C)(C)O)ccc4c23)cccc1-n1c(=O)cc2c(Cl)cccn2c1=O (atropisomer, axis not shown) [Example 15, 4-(3-(S)-(5-Chloro-1,3-dioxo-1H-pyrido[1,2-c]pyrimidin-2(3H)-yl)-2-methylphenyl)-7-(2-hydroxypropan-2-yl)-9H-carbazole-1-carboxamide] | 0.41 | 1000 | 2400 | 59 | – | –
Cc1c(-c2ccc(C(N)=O)c3[nH]c4c(C)c(C(C)(C)O)ccc4c23)cccc1-n1c(=O)c2cccc(F)c2n(C)c1=O (atropisomer, axis not shown) [Example 26, 4-(3-(S)-(8-Fluoro-1-methyl-2,4-dioxo-1,2-dihydroquinazolin-3(4H)-yl)-2-methylphenyl)-7-(2-hydroxypropan-2-yl)-8-methyl-9H-carbazole-1-carboxamide] | 0.84 | > 2000 | >2400 | – | 200 | –
[2H]C([2H])([2H])n1c(=O)n(-c2cccc(-c3ccc(C(N)=O)c4[nH]c5cc(C(C)(C)O)cc(C)c5c34)c2C)c(=O)c2cccc(F)c21 (atropisomer, axis not shown) [Example 27, 4-(3-(S)-(8-Fluoro-1-methyl(d3)-2,4-dioxo-1,2-dihydroquinazolin-3(4H)-yl)-2-methylphenyl)-7-(2-hydroxypropan-2-yl)-5-methyl-9H-carbazole-1-carboxamide] | 1.2 | > 2000 | >1700 | – | 98 | –
Cc1c(-c2ccc(C(N)=O)c3[nH]c4cc(C(C)(C)O)ccc4c23)cccc1-n1c(=O)[nH]c2c(F)cccc2c1=O (single isomer, unassigned) [Example 1, 4-(3-(8-Fluoro-2,4-dioxo-1,2-dihydroquinazolin-3(4H)-yl)-2-methylphenyl)-7-(2-hydroxypropan-2-yl)-9H-carbazole-1-carboxamide] | 1.5 | 1200 | 800 | – | – | 140
Cc1c(-c2ccc(C(N)=O)c3[nH]c4cc(C(C)(C)O)ccc4c23)cccc1-n1c(=O)c2cc(F)ccc2n(C)c1=O [Example 8, 4-(3-(6-Fluoro-1-methyl-2,4-dioxo-1,2-dihydroquinazolin-3(4H)-yl)-2-methylphenyl)-7-(2-hydroxypropan-2-yl)-9H-carbazole-1-carboxamide] | 5.8 | 2200 | 380 | – | 160 | –
Cc1c(-c2ccc(C(N)=O)c3[nH]c4cc(C(C)(C)O)ccc4c23)cccc1-n1c(=O)ccn(-c2ccc(F)cc2)c1=O [Example 9, 4-(3-(3-(4-Fluorophenyl)-2,6-dioxo-2,3-dihydropyrimidin-1(6H)-yl)-2-methylphenyl)-7-(2-hydroxypropan-2-yl)-9H-carbazole-1-carboxamide] | 2.2 | 1000 | 450 | – | 210 | –
Cc1c(-c2ccc(C(N)=O)c3[nH]c4cc(N(C)C)ccc4c23)cccc1-n1c(=O)cc2c(F)cccn2c1=O [Example 29, 7-(dimethylamino)-4-(3-(5-fluoro-1,3-dioxo-1H-pyrido[1,2-c]pyrimidin-2(3H)-yl)-2-methylphenyl)-9H-carbazole-1-carboxamide] | – | – | – | – | 56 | –
Cc1c(-c2ccc(C(N)=O)c3[nH]c4cc(CN5CCCC5)ccc4c23)cccc1-n1c(=O)cc2c(Cl)cccn2c1=O [Example 31, 4-(3-(5-chloro-1,3-dioxo-1H-pyrido[1,2-c]pyrimidin-2(3H)-yl)-2-methylphenyl)-7-(pyrrolidin-1-ylmethyl)-9H-carbazole-1-carboxamide] | – | – | – | – | 60 | –

Further lines, results first:

IC50 [1] [nM] | IC50 [2] [nM] | Ratio of Jak2/Btk IC50 values [2] | IC50 [3] [nM] | IC50 ([3]; B-cell) [nM] | IC50 ([3]; Homo sapiens, B-cell, 18 h) [nM] | Molecule
– | 2000 | – | 190 | – | – | [2H]C([2H])([2H])n1c(=O)n(-c2cccc(-c3ccc(C(N)=O)c4[nH]c5cc(C(C)(C)O)ccc5c34)c2C)c(=O)c2cccc(F)c21 (atropisomer, axis not shown) [Example 4, 4-(3-(S)-(8-Fluoro-1-methyl(d3)-2,4-dioxo-1,2-dihydroquinazolin-3(4H)-yl)-2-methylphenyl)-7-(2-hydroxypropan-2-yl)-9H-carbazole-1-carboxamide]
2.4 | 850 | 350 | 200 | – | – | Cc1c(-c2ccc(C(N)=O)c3[nH]c4cc(C(C)(C)O)ccc4c23)cccc1-n1c(=O)[nH]c2c(F)cccc2c1=O (single isomer, unassigned) [Example 2, 4-(3-(8-Fluoro-2,4-dioxo-1,2-dihydroquinazolin-3(4H)-yl)-2-methylphenyl)-7-(2-hydroxypropan-2-yl)-9H-carbazole-1-carboxamide]
0.7 | 4600 | 6600 | – | 69 | – | Cc1c(-c2ccc(C(N)=O)c3[nH]c4cc(C(C)(C)O)cc(C)c4c23)cccc1-n1c(=O)c2cccc(F)c2n(C)c1=O (single isomer, unassigned) [Example 25]
0.9 | 1200 | 1300 | – | 180 | – | Cn1c(=O)n(-c2cccc(-c3ccc(C(N)=O)c4[nH]c5cc(C(C)(C)O)ccc5c34)c2Cl)c(=O)c2cccc(F)c21 [Example 5, 4-(2-Chloro-3-(8-fluoro-1-methyl-2,4-dioxo-1,2-dihydroquinazolin-3(4H)-yl)phenyl)-7-(2-hydroxypropan-2-yl)-9H-carbazole-1-carboxamide]
5.3 | 1800 | 340 | – | 150 | – | Cn1c(=O)n(-c2cccc(-c3ccc(C(N)=O)c4[nH]c5cc(C(C)(C)O)ccc5c34)c2Cl)c(=O)c2ccccc21 [Example 6, 4-(2-Chloro-3-(1-methyl-2,4-dioxo-1,2-dihydroquinazolin-3(4H)-yl)phenyl)-7-(2-hydroxypropan-2-yl)-9H-carbazole-1-carboxamide]
1.7 | 1300 | 760 | – | 220 | – | COc1cccc2c(=O)n(-c3cccc(-c4ccc(C(N)=O)c5[nH]c6cc(C(C)(C)O)ccc6c45)c3C)c(=O)n(C)c12 [Example 7, 7-(2-Hydroxypropan-2-yl)-4-(3-(8-methoxy-1-methyl-2,4-dioxo-1,2-dihydroquinazolin-3(4H)-yl)-2-methylphenyl)-9H-carbazole-1-carboxamide]
1.4 | 1100 | 790 | – | 120 | – | COc1ccc2cc(=O)n(-c3cccc(-c4ccc(C(N)=O)c5[nH]c6cc(C(C)(C)O)ccc6c45)c3C)c(=O)n2c1 [Example 10, 7-(2-Hydroxypropan-2-yl)-4-(3-(7-methoxy-1,3-dioxo-1H-pyrido[1,2-c]pyrimidin-2(3H)-yl)-2-methylphenyl)-9H-carbazole-1-carboxamide]
0.63 | 1000 | 1600 | – | 140 | – | COc1ccn2c(=O)n(-c3cccc(-c4ccc(C(N)=O)c5[nH]c6cc(C(C)(C)O)ccc6c45)c3C)c(=O)cc2c1 [Example 11, 7-(2-Hydroxypropan-2-yl)-4-(3-(6-methoxy-1,3-dioxo-1H-pyrido[1,2-c]pyrimidin-2(3H)-yl)-2-methylphenyl)-9H-carbazole-1-carboxamide]
0.52 | 980 | 1900 | – | 140 | – | COc1cccn2c(=O)n(-c3cccc(-c4ccc(C(N)=O)c5[nH]c6cc(C(C)(C)O)ccc6c45)c3C)c(=O)cc12 [Example 12, 7-(2-Hydroxypropan-2-yl)-4-(3-(5-methoxy-1,3-dioxo-1H-pyrido[1,2-c]pyrimidin-2(3H)-yl)-2-methylphenyl)-9H-carbazole-1-carboxamide]
0.94 | 1300 | 1400 | 120 | – | – | Cc1c(-c2ccc(C(N)=O)c3[nH]c4cc(C(C)(C)O)ccc4c23)cccc1-n1c(=O)cc2c(Cl)cccn2c1=O [Example 13, 4-(3-(5-Chloro-1,3-dioxo-1H-pyrido[1,2-c]pyrimidin-2(3H)-yl)-2-methylphenyl)-7-(2-hydroxypropan-2-yl)-9H-carbazole-1-carboxamide]
– | – | – | 78 | – | – | Cc1c(-c2ccc(C(N)=O)c3[nH]c4cc(C(C)(C)O)ccc4c23)cccc1-n1c(=O)cc2c(Cl)cccn2c1=O [Example 14, 4-(3-(R)-(5-Chloro-1,3-dioxo-1H-pyrido[1,2-c]pyrimidin-2(3H)-yl)-2-methylphenyl)-7-(2-hydroxypropan-2-yl)-9H-carbazole-1-carboxamide]
– | – | 29 | – | – | – | Cc1nc(C(N)=O)c2[nH]c3cc(C(C)(C)O)ccc3c2c1-c1cccc(-n2cnc3ccccc3c2=O)c1C [compound 35, 7-(2-Hydroxypropan-2-yl)-3-methyl-4-(2-methyl-3-(4-oxoquinazolin-3(4H)-yl)phenyl)-9H-pyrido[3,4-b]indole-1-carboxamide, reference compound]
